In US12324827B2, “Combination therapy for the treatment of migraines” (The University of Chicago, priority 2019, dated 2025):

Legend:
[1] = tested on: cortical spreading depression; test: Number of cortical spreading depressions evoked over 90 minutes; format: in vivo, rat; conditions: CSD stimulus every nine minutes for 90 minutes, an hour after intravenous injection, n=3
Source text: Animals are stabilized for an hour under anesthesia (1.5% isoflurane in oxygen) after head sutures are removed, eyes coated with Artificial Tears and animals made ready for initiation and recording of CSD under deeper (5%) isoflurane in oxygen, which is then lowered back to 1.5% isoflurane in oxygen during CSD recordings. CSD is initiated as described above one to four hours after antibody infusion. All animals receive nine KCl injections. Then, isoflurane is raised to 5% and animals anesthetized with intraperitoneal ketamine and Xylazine followed quickly by euthanasia via intra-cardiac perfusion with 0.1 mL heparin (1,000 units/ml), then 250 ml of normal saline and finally 250 ml 4% paraformaldehyde in 0.2 M phosphate buffer. Brains plus upper cervical cord and trigeminal ganglia are harvested for measurement of c-fos immunostaining in the trigeminocervical complex and CGRP and oxidative stress (malondialdehyde) levels in the trigeminal ganglion ipsilateral to CSD. Animal groups and endpoints are defined below.
First, the inventors confirmed that there was no significant difference in the number of evoked CSDs between groups (FIG. 16). Sham nasal delivery was, as reported (i.e., 50 μl succinate buffer delivered as 5 μl aliquots to alternating nostrils every two minutes) while under isoflurane inhalational anesthesia (Won and Kraig, 2020). […]

[2] = Blood glucose after nose-to-brain (N2B) delivery of IGF-1; format: in vivo, Wistar rats; conditions: 1.0-hour after N2B IGF-1 150 μg, n=4/group
[3] = tested on: blood CGRP; test: CGRP plasma assay (ELISA) after recurrent spreading depression; format: in vivo, rat
Procedure: Blood was collected via cardiac puncture using a 21 gauge syringe needle and transferred into a BD Vacutainer K3 EDTA blood collection tube (366450, Becton, Dickinson & Co., Franklin Lakes, NJ). Samples were spun 1,500 g×10 min at 4° C. The plasma was transferred to sterile 2.0 mL, screw cap, polypropylene tubes and stored at −80° C. until analysis. Plasma samples were sent to Cayman Chemical Company (Ann Arbor, Michigan) for analysis of CGRP content using ELISA methods. According to the vendor, the detection limit is <10 pg/mL.

[4] = tested on: trigeminal ganglion CGRP; test: CGRP immunostaining of trigeminal ganglion (V1) in naïve animals 24 hours after N2B IGF-1; format: in vivo, rat
Procedure: 24 hours later animals were re-anesthetized, brains harvested and processed for CGRP immunostaining of the TG. Images were obtained from each animal and image fluorescence intensity quantified via a digital imaging strategy. Three images were measured per animal and the averages recorded. Nasal delivery and image processing was completed while blinded to conditions. Experiments, immunostaining and imaging were done in pairs (i.e., sham and IGF-1) to reduce potential variability. […] This reduction was significant (p<0.001; alpha=0.05; power of 1.00). Scale bar=50 μm. […]
The inventors used computer-based and blinded semi-quantitative digital quantification of immunostaining metrics to test the ability of N2B IGF-1 to impact TS activation. […]
Imaging was performed using a Photometrics self-calibrating digital camera QuantEM-512SC camera (500×500 pixels; Photometrics, Tucson, AZ) run on MetaMorph software (v. 7.0.4; Molecular Devices, Sunnyvale, CA) under blinded conditions (as previously described (13, 20-22). Image exposure, camera gain and thresholding were uniformly set (i.e., equivalently for experimental and sham groups for each imaging metric (i.e., MDA, CGRP and c-fos). Resultant images were digitally stored as TIFF files for subsequent analyses that continued under blinded conditions where image integrated fluorescence intensity was registered using MetaMorph software for MDA and CGRP. […]

IGF-1: human recombinant IGF-1 (#191-G1; R&D Systems), 150 μg in 50 μL sodium succinate buffer, delivered nose-to-brain
number of CSDs evoked [1]: 7±0.41
blood glucose level [2]: 139 ± 24 mg/dL
blood (plasma) CGRP level after recurrent SD ([3]; IGF-1 pretreatment, n=6/group, three samples below the detection limit): 7.7 ± 1.6 pg/mL
changes in blood CGRP levels after pretreatment followed by recurrent SD ([3]; IGF-1 versus vehicle): no significant (p=0.347, power=0.136) changes
reduction of CGRP levels in the trigeminal ganglion of naïve animals ([4]; N2B IGF-1 150 μg versus sham, 24 hours, p<0.001): ~75%
natural logarithm ratio (IGF-1/sham) of CGRP immunostaining, naïve animals ([4]; n=7/group): −1.66±0.32
